Results reported in PubChem BioAssay AID179 (DTP/NCI, 2004).
Active and inactive are the calls of the source.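 The calls were made as follows: active = compounds giving half or more protection of infected cells from virus-caused growth loss, again on retest; inactive = the rest.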 Where a SMILES comes first, the peptide text is derived from it. [ ]: non-standard residue; d: D form. The star is where a group is joined. ξ: configuration not given here. Cbz = O=C(OCc1ccccc1)*; Bz = O=C(c1ccccc1)*; ξC = NC(CS)C(=O)O

Tested on: CEM cells HIV-1 protection, formazan growth assay
Assay: NCI AIDS Antiviral Assay
Conditions: for IC50: measured here: growth of uninfected CEM cells
In short: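 Category rules: moderately active means at least 50% protection on retest, and confirmed active means 100% protection reproducibly. The underlying data came from a formazan growth assay in HIV-1-infected CEM cells.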

Row | Structure (SMILES) | EC50 [µM] | IC50 [µM] | outcome
1 | O=C1C[N+]2(Cc3ccccc3)CCC1CC2 | > 851 | > 851 | –
2 | Nc1ncnc2c1ccn2C/C=C/CO | > 200 | > 200 | –
3 | Cn1c2ccc([N+](=O)[O-])cc2c(=O)n1Cc1ccccc1F | > 200 | 58.9 | –
4 | Clc1c(Cl)c2c(Cl)c(Cl)c1C[P+](c1ccccc1)(c1ccccc1)CC[P+](c1ccccc1)(c1ccccc1)Cc1c(Cl)c(Cl)c(c(Cl)c1Cl)C[P+](c1ccccc1)(c1ccccc1)CC[P+](c1ccccc1)(c1ccccc1)C2 | > 66.1 | 4.68 | –
5 | CCOC(=O)/C(O)=C(/C(=O)OC)c1ccc(Cl)cc1 | > 427 | > 427 | –
6 | COc1ccc2c(c1)OC[C@@H]1c3cc(O)c4c(OCc5ccccc5)cccc4c3O[C@H]21 | > 100 | 67.6 | –
7 | CC(C)(C)OC(=O)N(CCCCNC(=O)C(F)(F)F)CCCNC(=O)C(F)(F)F | > 200 | > 200 | –
8 | O=C(O)CCc1ccc(NC(=O)CN(CCO)CCO)cc1 | > 200 | > 200 | –
9 | COC(=O)C1C2CC3c4[nH]c5cc(OC)ccc5c4CCN3CC2CC(OC)C1OC (configuration not stated) | > 200 | > 200 | –
10 | COC(=O)C(CS)NC(=O)CNC(=O)c1ccccc1 (configuration not stated) (Bz-Gly-[ξC]-OMe) | > 851 | 46.8 | –
11 | NC1(N2SC(S)=C3CCCC=C32)CCCCC1 | 42.7 | > 200 | –
12 | CC(C)(C)c1n[nH]c(C(C)(C)C)c1N=O | > 200 | 97.7 | –
13 | O=c1ssc(Cl)c1-c1ccccc1 | > 200 | 10.2 | –
14 | CCCc1cc(=O)oc2c3c(c4c(c12)OC(C)(C)C=C4)O[C@@H](C)[C@H](C)[C@@H]3O[Si](C)(C)C(C)(C)C | > 200 | > 200 | –
15 | Cc1ccc(S(=O)c2cccs2)cc1 (configuration not stated) | > 1120 | 182 | –
16 | Cc1cc(C[C@H]2O[C@@H]3OC(C)(C)O[C@@H]3[C@H]3OC(C)(C)O[C@H]32)c2ccccc2n1 | > 200 | 64.6 | –
17 | CC1=NN(c2ccccc2)C(=O)C1N=Nc1ccc(S(=O)(=O)Nc2ccccn2)cc1 (configuration not stated) | – | – | inactive
18 | O=C(NC1C(=O)NNC1c1cccc([N+](=O)[O-])c1)c1ccccc1 (configuration not stated) | > 288 | > 288 | –
19 | O=C1/C(=C/c2ccc(O)c(O)c2)CC/C1=C\c1ccc(O)c(O)c1 | > 200 | 10.7 | –
20 | COc1cc(OC)c2c(c1)C(=O)c1ccccc1C2=O | – | – | inactive
21 | O=C1C2CCCC3CCCC(C(=O)N1O)C32 (configuration not stated) | > 200 | 39.8 | –
22 | CC(=O)C1C(=O)C(=O)N(c2ccc(Cl)cc2C)C1=O (configuration not stated) | > 93.3 | > 93.3 | –

Row | Structure (SMILES) | EC50 [µM] | IC50 [µM] | outcome
23 | CC(C)(C)OC(=O)N1CCC2(CC1)C(=O)NCN2c1ccccc1 | > 200 | > 200 | –
24 | Cc1ccc2c(c1C)C(=O)C1(Cc3cc4c(cc3C1=O)CCC4)C2 (configuration not stated) | > 100 | > 100 | –
25 | CN(C)C=Nc1c(I)cc(I)c(CCC(=O)O)c1I | > 200 | > 200 | –
26 | CC(C)NCC(O)COc1cccc2ccccc12 (configuration not stated) | > 200 | 120 | –
27 | Clc1nc(Nc2nc3ccccc3[nH]2)nc(Cl)c1Cc1ccccc1 | – | – | inactive
28 | O=S(=O)(/C=C/CS(=O)(=O)c1ccccc1)c1ccccc1 | – | – | inactive
29 | Cc1c2c(n3c(nc4ccccc43)c1C#N)N(c1ccc(Cl)cc1)CC2 | > 50.1 | > 50.1 | –
30 | Cc1nc2sc(C)c(C)c2c(=O)o1 | > 200 | 95.5 | –
31 | OC1(C2(O)c3ccccc3-c3ccccc32)c2ccccc2-c2ccccc21 | > 72.4 | 41.7 | –
32 | S=c1c2cn[nH]c2nc2scc(-c3ccc(Cl)cc3)n12 | > 200 | 13.2 | –
33 | CC1(O)CC2(O)C=CC3=C(C(=O)c4cccc(O)c4C3=O)C2(O)C(=O)C1O (configuration not stated) | > 676 | 0.339 | –
34 | O=C1c2cc(Cl)ccc2-n2cnnc2C2CSCN12 (configuration not stated) | > 200 | > 200 | –
35 | CCOC(=O)Cc1csc2[n+]1C(=O)/C(=C/c1cccc(OC)c1O)S2 | > 200 | 174 | –
36 | COC(=O)/C(C#N)=C/c1ccco1 | > 200 | > 200 | –
37 | O=C1/C(=C/c2ccc(Br)cc2)CCC/C1=C\c1ccc(Br)cc1 | > 6.31 | > 6.31 | –
38 | NC1(C(=O)O)C2CC3CC(C2)CC1C3 (configuration not stated) | – | – | inactive
39 | Clc1ccc(C2C3COc4ccccc4C3=NN2c2ccccc2)cc1 (configuration not stated) | > 151 | 1.95 | –
40 | CC(C)[Si]1(C(C)C)OCC2OC(n3cnc4c(N)ncnc43)C(N)C2O[Si](C(C)C)(C(C)C)O1 (configuration not stated) | > 200 | 8.51 | –
41 | CN(C)c1ccc(-c2cc(C(=O)O)c3c(ccc4ccccc43)n2)cc1 | > 20.9 | > 20.9 | –
42 | CC[C@@H](CCCCC1CC[C@H]2CC(=O)C[C@@H]12)OC (some centres not stated) | > 200 | 102 | –
43 | CCn1c(=O)c(N=O)c(N)n(CCCO)c1=O | > 200 | > 200 | –
44 | CCOc1cc2c(cc1C(C)c1ccc(OC)cc1)OCO2 (configuration not stated) | > 33.1 | 0.214 | –

Row | Structure (SMILES) | EC50 [µM] | IC50 [µM] | outcome
45 | CN(C)c1ccc(N=Nc2ccc(/C=C/c3ccnc4ccccc34)cc2)cc1 | > 19.1 | > 19.1 | –
46 | CCOC(=O)NN(C(=O)OCC)C(C(=O)C1=CCCCC1)N(NC(=O)OCC)C(=O)OCC | > 200 | > 200 | –
47 | C[N+]1=C2[B-](C(C)(C)C)=[N+](C(C)(C)C)[B-]2(C(C)(C)C)[N+](C)=C2[B-](C(C)(C)C)=[N+](C(C)(C)C)[B-]21C(C)(C)C (configuration not stated) | > 50.1 | > 50.1 | –
48 | Cn1cc2ccccc2c1-c1nc(F)nc(Oc2ccc3c(c2)CC[C@@H]2C3CC[C@@]3(C)C2C[C@H](O)[C@@H]3O)n1 (some centres not stated) | > 10 | > 10 | –
49 | Cn1nc(C(N)=O)c(=O)[nH]c1=O | > 200 | > 200 | –
50 | COc1cc2c(c3c1[C@@H](O)[C@@H](C)[C@@H](C)O3)C=CC(C)(C)O2 | > 200 | 75.9 | –
51 | O=C1/C(=C/c2ccccc2)CCCc2ccccc21 | > 200 | 21.4 | –
52 | CC(=O)N[C@]1(C)CCC2C[C@H]1C(C)=NC2(C)C | > 1050 | > 1050 | –
53 | Cc1cc(/C=C2/OC(=O)c3ccccc32)cc(C)c1O | > 100 | > 100 | –
54 | Nc1ccc2nc(Nc3ccc(Cl)c(Cl)c3)cnc2c1 | > 23.4 | > 23.4 | –
55 | CN(C)c1ccc(C=NCC2CCCN3CCCCC23)cc1 (configuration not stated) | > 100 | > 100 | –
56 | COC(=O)C(CCS(=O)(=O)CC(=O)C(=O)Nc1cccc(C(C)=O)c1)C(=O)OC | – | – | inactive
57 | O=C1Cc2ccccc2CCc2ccsc21 | 64.6 | 83.2 | –
58 | CC[C@@]1(OS(=O)(=O)O)CCC2C3CC=C4CC(O)CC[C@]4(C)C3CC[C@@]21C (some centres not stated) | 107 | 224 | –
59 | O=C(O)C(CO)NC(=O)C1CCCN1C(=O)OCc1ccccc1 (stereo not drawn) (Cbz-Pro-Ser-OH; configuration not given here) | > 77.6 | > 77.6 | –
60 | CS(=O)(=O)Nc1ccc2ccccc2c1 | > 200 | 158 | –
61 | C[C@H]1CC[P+](C)(c2ccccc2)C1 (some centres not stated) | > 912 | > 912 | –
62 | CC1(C)O[C@H]2OC(CO)C(N=[N+]=[N-])[C@H]2O1 (some centres not stated) | > 200 | > 200 | –
63 | CCOP(=O)(OCC)OC1CC(n2cc(C)c(=O)n(C)c2=O)OC1CO[Si](C)(C)C(C)(C)C (configuration not stated) | > 200 | 107 | –
64 | COP(=O)(Cc1ccc(/C=C/C#N)o1)OC | > 200 | > 200 | –
